According to PubChem BioAssay AID2060906 (Molecular Pharmacology Branch, DTP, NCI, 2025):

Test system: 485176-168-R4-J1-PDC complex spheroid growth
Experiment: Anticancer human tumor 485176-168-R4-J1-PDC patient-derived pancreatic adenocarcinoma cell line growth inhibition [RAS]
Conditions: for IC50: curve of first compound; for viability, T/C: stronger effect = lower value
From the text: RAS pathway inhibitors in Combinations in Complex Spheroids
A high-throughput screen of multi-cell type tumor spheroids was designed to identify active combinations of RAS pathway inhibitors and targeted small molecules. Complex spheroids include a stromal component modeled by human endothelial cells (HUVEC) and fibroblasts modeled by human mesenchymal stem cells (MSCs). The concentration ranges selected for each drug and investigational agent were based upon clinically achievable concentrations if the clinical Cmax of the agent was known.
Compounds. The drugs and investigational agents: abemaciclib (NSC768073), cobimetinib (NSC768068), divarasib (GDC6063, NSC841802), docetaxel (NSC628503), GDC-1971 (RLY-1971, NSC841576), gemcitabine (NSC613327), inavolisib (NSC800729), ipatasertib (NSC767898), KB-0742 (NSC834161), MRTX-1133 (NSC836407), osimertinib (NSC779217), RMC-4630 (NSC839698), RMC-6236 (NSC851965), RMC-6291 (NSC852671), Ro-3306 (NSC812927), sapanisertib (NSC764658), SN-38 (NSC673596), staurosporine (NSC755774), SY5609 (NSC837396), and tovorafenib (DAY101, NSC766906), were obtained from the National Cancer Institute (NCI) Developmental Therapeutics Program Chemical Repository. The FDA-approved anticancer drug set is available from the NCI Developmental Therapeutics Program. […] The stock solutions were prepared in dimethyl sulfoxide (DMSO, Sigma-Aldrich, St. Louis, MO, cat. D2650) at 800-fold the tested concentration and stored at -70 degrees C prior to their use. All drugs and investigational agents were tested over a range starting from a high concentration at or near the clinical Cmax and decreasing in half-log increments. If the clinical Cmax for an agent had not been determined, the highest concentration tested was 10 microM.
Cell Culture. All cells were maintained in an incubator at 37 degrees C and 5% CO2 with 95% humidity. The PDC lines were cultured according to standard operating procedures established by the NCI PDMR. All PDCs were thawed and cultured in Matrigel-coated flasks prepared with a working solution of 1X Ham's F-12 nutrient mix, without supplementation (Invitrogen, Waltham, MA, cat. 11765054), 100 U/mL penicillin-streptomycin (Invitrogen, cat. 15140122), and 2.5% Matrigel (Corning Inc., Corning, NY, cat. 354248) for the first three passages. The 362531-283-R-J2-PDC and 782815-120-R-J1-PDC lines were cultured in 6C/Colon 1B media, which includes advanced DMEM/F-12 (Thermo Fisher Scientific, cat. 12634028), 10 mM HEPES (Thermo Fisher Scientific, cat. 15630080), 1X GlutaMAX supplement (Thermo Fisher Scientific, cat. 35050061), 0.1 mg/mL primocin (InvivoGen, San Diego, CA, cat. ant-pm-2), 10% defined fetal bovine serum, heat inactivated (HyClone Laboratories Inc., Logan, UT, cat. SH30070.03HI), 50% L-WRN conditioned media (ATCC, cat. CRL-3276), 1.25 mM N-Acetyl-L-cysteine (Sigma-Aldrich, cat. A9165), 10 mM nicotinamide (Sigma-Aldrich, cat. N0636), 1X B-27 supplement (Thermo Fisher Scientific, cat. 17504044), 1X N-2 supplement (Thermo Fisher Scientific, cat. 17502048), 50 ng/mL human EGF (Thermo Fisher Scientific, cat. PHG0311), and 10 microM Y-27632 dihydrochloride (Tocris Bioscience, cat. 1254). The K12877-001-R-J1-PDC line was cultured in 6I media, which includes all 6C/Colon 1B media plus 10 ng/mL human FGF-10 (PeproTech, cat. 100-26), 1 ng/mL human FGF-2 (PeproTech, cat. 100-18B), 1 µM prostaglandin E2 (Tocris Bioscience, cat. 2296), […] hydrocortisone (Sigma-Aldrich, cat. H4001), and […] bovine insulin (Sigma-Aldrich, cat. I6634). The K86415-001-R-J1-PDC line was cultured in 6D media, which includes all 6C/Colon 1B media components minus the L-WRN conditioned media. The 485176-168-R4-J1-PDC was cultured in PANC media, which includes all 6C/Colon 1B media plus 100 ng/mL human FGF-10 (PeproTech, cat. 100-26), 500 nM SB-431542 (Selleckchem, cat. S1067), and 10 nM gastrin (Tocris Bioscience, cat. 3006). […]
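Further: spheroids exposed to compounds for seven days before readout.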
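Wherever viability, T/C is given: luminescence viability expressed relative to DMSO vehicle wells set as 100%.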

IC50 (second compound 0.0316 µM): 2540 nM
IC50 (second compound 0.1 µM): 2970 nM
IC50 (second compound 0.316 µM): 3630 nM
IC50 (second compound 1 µM): 2080 nM
IC50 (second compound 3.16 µM): 2210 nM
IC50 (second compound 10 µM): 2900 nM
Compound: CC1(O)CCCC1n1c(=O)c(C(F)F)cc2cnc(NC3CCN(S(C)(=O)=O)CC3)nc21 (configuration not stated) + C#Cc1c(F)ccc2cc(O)cc(-c3ncc4c(N5CC6CCC(C5)N6)nc(OCC56CCCN5CC(F)C6)nc4c3F)c12
viability, T/C (second compound 0.0316 µM, first compound 0.0316 µM): 95%
viability, T/C (second compound 0.0316 µM, first compound 0.1 µM): 66.2%
viability, T/C (second compound 0.0316 µM, first compound 0.316 µM): 60.5%
viability, T/C (second compound 0.0316 µM, first compound 1 µM): 79.6%
viability, T/C (second compound 0.0316 µM, first compound 3.16 µM): 44.1%
viability, T/C (second compound 0.0316 µM, first compound 10 µM): 2.88%
viability, T/C (second compound 0.1 µM, first compound 0.0316 µM): 78.7%
viability, T/C (second compound 0.1 µM, first compound 0.1 µM): 76.5%
viability, T/C (second compound 0.1 µM, first compound 0.316 µM): 68.7%
viability, T/C (second compound 0.1 µM, first compound 1 µM): 61.2%
viability, T/C (second compound 0.1 µM, first compound 3.16 µM): 53.6%
viability, T/C (second compound 0.1 µM, first compound 10 µM): 2.44%
viability, T/C (second compound 0.316 µM, first compound 0.0316 µM): 89.9%
viability, T/C (second compound 0.316 µM, first compound 0.1 µM): 72.2%
viability, T/C (second compound 0.316 µM, first compound 0.316 µM): 68.3%
viability, T/C (second compound 0.316 µM, first compound 1 µM): 66.9%
viability, T/C (second compound 0.316 µM, first compound 3.16 µM): 60.4%
viability, T/C (second compound 0.316 µM, first compound 10 µM): 3.62%
viability, T/C (second compound 1 µM, first compound 0.0316 µM): 91.5%
viability, T/C (second compound 1 µM, first compound 0.1 µM): 81.4%
viability, T/C (second compound 1 µM, first compound 0.316 µM): 66.8%
viability, T/C (second compound 1 µM, first compound 1 µM): 64.7%
viability, T/C (second compound 1 µM, first compound 3.16 µM): 47.2%
viability, T/C (second compound 1 µM, first compound 10 µM): 1.8%
viability, T/C (second compound 3.16 µM, first compound 0.0316 µM): 104%
viability, T/C (second compound 3.16 µM, first compound 0.1 µM): 84.9%
viability, T/C (second compound 3.16 µM, first compound 0.316 µM): 66.2%
viability, T/C (second compound 3.16 µM, first compound 1 µM): 62.2%
viability, T/C (second compound 3.16 µM, first compound 3.16 µM): 58%
viability, T/C (second compound 3.16 µM, first compound 10 µM): 2.91%
viability, T/C (second compound 10 µM, first compound 0.0316 µM): 89.1%
viability, T/C (second compound 10 µM, first compound 0.1 µM): 70.8%
viability, T/C (second compound 10 µM, first compound 0.316 µM): 82.7%
viability, T/C (second compound 10 µM, first compound 1 µM): 57.1%
viability, T/C (second compound 10 µM, first compound 3.16 µM): 55.9%
viability, T/C (second compound 10 µM, first compound 10 µM): 2.88%
